# Experimental data as given in patent EP1094711B1, “METHODS FOR ERADICATION OF NANOBACTERIA” (Nanobac Oy, priority 1998, dated 2000).
# Read-outs that look alike come from different tables or passages of the source.
# Columns and labels:
# nanobacteria = test: Antibiotic sensitivity test by Minimal Inhibition Concentration (MIC), 96-well plates, absorbance at 650 nm; type: cell-based
# Procedure: Antibiotic sensitivity tests were carried out by measuring Minimal Inhibition Concentration (MIC), a common practice in clinical microbiology.
# The tests were performed in 96-well plates. DMEM (commercial cell culture medium) containing 10% gamma-irradiated fetal bovine serum (FBS)(dose about 3 Mrads; this treatment inactivates nanobacteria in the serum so that the basic medium is sterile) was used as the basic culture medium. These components are commercially available, e.g., from Gibco. The antibiotic stock solutions were sterile filtered through 0.2 micrometer filters. The stock solutions were then serially diluted (into the basal culture medium) to provide a final starting concentration of 0.5 mg/ml and 1:2 dilutions therefrom, unless otherwise specified. For each antibiotic three parallel tests were performed using all the antibiotic dilutions and, additionally, positive and negative control experiments. […] 100 µl of dilutions of the nanobacteria inoculum were added to all wells except the negative controls. The plates were incubated at mammalian cell culture conditions (37° Celsius, 5% carbon dioxide, 95% humid air). The absorbance values at 650 nm were recorded by using an ELISA reader at the start, and at 4, 8, 12, 14 days. […] Calculations were based on absorbance curves where absorbance was plotted against concentration of the antibiotic.
# SF-nanobacteria = test: Chemical disinfection of SF-nanobacteria; type: cell-based; parameters: key to Resistance of SF-nanobacteria to chemical disinfectants (survival) / partial or total detachment on exposure: +++: No effect; ++: Reduced survival; +: Markedly reduced survival; - : No survival; * = partial or total detachment on exposure; conditions: for Resistance of SF-nanobacteria to chemical disinfectants (survival): survival after subculture compared to diluent only; for effect of chemical disinfection on SF-nanobacteria (in words): exposure at room temperature, then subculture
# From the text: The cultures were exposed to the disinfectants after removal of the culture medium. For the autoclaving, UV, microwave, and drying treatments, the medium was removed and an equal amount of PBS used instead. For the heat treatments, the SF-nanobacteria were harvested by scraping the culture vessel followed by centrifugation of the medium. The obtained pellet was suspended in PBS and used in the test. After treatments the SF-nanobacteria were subcultured in DMEM medium and the growth followed by light microscopy to see the adherence and typical mineralization.
# The concentrations of the chemicals used were those commonly used for disinfection or as instructed by the manufacturer. The chemicals included 70% ethanol, 2% glutaraldehyde, 4% formaldehyde, 0.5% hypochlorite, 3% hydrogen peroxide, 1M hydrochloric acid (HCl), 1M sodium hydroxide (NaOH) , 1% sodium dodecyl sulfate (SDS), 1% Tween 80, 1 % Triton X-100, 3M guanidium-hydrochloride, 3M urea, 1% Virkon® (Antec International Ltd., Suffolk, England; 100% product contains 50% potassium persulfate, 5% sulfaminoic acid), 1.5% Erifenol® (Orion OY, Finland; 100% product contains <5% NaOH, <5% o-benzyl-p-chlorophenol, 5-15% p-chloro-m-cresol), 1% Klorilli® (Orion OY, Finland; 100% product contains sodium metasilicate, sodium N-chloro-p-toluenesulfonamide-3-hydrate and 20,000 ppm active chlorine), and 3% Buraton® (Schülke & Mayr, Germany; 100% product contains 4.5% formaldehyde, 6.8% glyoxal, 1.5% glyoxylic acid, 6% dimethylaurylbenzyl-ammonium chloride). The dilutions to be used were freshly prepared on the day of exposure in sterile distilled water. As a positive control, only diluent was used. Negative control contained only culture medium.
# The SF-nanobacteria were exposed to the chemicals for 10 and 30 minutes at room temperature after removal of the culture medium. After exposure, the disinfectant solution was removed and fresh medium added (with a neutralization step in the case of HCl and NaOH). If any significant deattachment occurred, nanobacteria were recovered by centrifugation, and subcultured. The exposed serum-free cultures were passaged 1:10 after 48 hours and the growth was followed by light microscopy for three weeks.
# [1] = 50% inhibition, 12 day time point, DMEM with 10% gamma-irradiated FBS
# [2] = short chain organic acids tested later in culture tests; read-out: MIC50 values
# [3] = light or radiation study, 288 h; read-out: MIC 50
# [4] = Exposure time 10 min, room temperature
# [5] = Exposure time 30 min, room temperature
molecule,measurement,setting,value
Neomycin,MIC 50,nanobacteria; [1],16 µg/mL
same,MIC 90,"nanobacteria; 90% inhibition, 12 day time point, DMEM with 10% gamma-irradiated FBS",30 µg/mL
same,antinanobacterial effect in the in vitro test (in words),nanobacteria; in vitro MIC test,bacteriostatic effects at high antibiotic concentrations
CC(=O)O [acetic acid],IC50,nanobacteria; [2],10 to 50 mM
CCC[C@@H]1C[C@@H](C(=O)N[C@@H]([C@H]2O[C@H](SC)[C@H](O)[C@@H](O)[C@H]2O)[C@@H](C)O)N(C)C1 [Lincomycin],IC50,nanobacteria; [3],> 500 µg/mL
[H]/N=C(/N)N[C@H]1[C@H](O)[C@@H](O)[C@H](O[C@@H]2O[C@@H](C)[C@](O)(C=O)[C@H]2O[C@@H]2O[C@@H](CO)[C@H](O)[C@@H](O)[C@@H]2NC)[C@@H](N/C(N)=N\[H])[C@@H]1O [Streptomycin],antinanobacterial effect in the in vitro test (in words),nanobacteria; in vitro MIC test,bacteriostatic effects at high antibiotic concentrations
same,IC50,nanobacteria; [3],> 500 µg/mL
COc1cc(Cc2cnc(N)nc2N)cc(OC)c1OC [Trimethoprim],antinanobacterial effect in the in vitro test (in words),nanobacteria; in vitro MIC test,bacteriostatic
same,IC90,"nanobacteria; light or radiation study, 288 h; 90% inhibition, 12 day time point, DMEM with 10% gamma-irradiated FBS; read-out: MIC 90",5 µg/mL
same,IC50,nanobacteria; [3],0.7 µg/mL
Nc1ccc(C(=O)O)c(O)c1 [para-aminosalicylic acid],MIC value compared with acetylsalicylic acid,nanobacteria,identical with acetylsalicylic acid
O=C(N[C@H](CO)[C@H](O)c1ccc([N+](=O)[O-])cc1)C(Cl)Cl [Chloramphenicol],IC50,nanobacteria; [3],> 500 µg/mL
CC1(C)S[C@@H]2[C@H](NC(=O)[C@H](N)c3ccccc3)C(=O)N2[C@H]1C(=O)O [Ampicillin],antinanobacterial effect in the in vitro test (in words),nanobacteria; in vitro MIC test,weak bacteriostatic effect
same,IC50,nanobacteria; [3],500 µg/mL
Penicillin,MIC 50,nanobacteria; [1],>500 µg/mL
NC(=O)c1cnccn1 [Pyrazinamide],IC50,nanobacteria; [3],> 500 µg/mL
"CC1=CC(=O)c2ccccc2C1=O [Vitamin K (Menadion), Menadion]",antinanobacterial effect in the in vitro test (in words),nanobacteria; in vitro MIC test,toxic to nanobacteria
same,IC50,nanobacteria; [3],2 µg/mL
O=C1O[C@H]([C@@H](O)CO)C(O)=C1O [ascorbic acid],IC50,nanobacteria; [2],10 to 50 mM
"CCCCCCCC/C=C\CCCCCCCC(=O)OCCOCC(OCCO)C1OCC(OCCO)C1OCCO (stereo not shown) [1 % Tween 80, Tween 80]",Resistance of SF-nanobacteria to chemical disinfectants (survival),SF-nanobacteria; [4],+++
same,Resistance of SF-nanobacteria to chemical disinfectants (survival),SF-nanobacteria; [5],+++
"[Na+].[OH-] [1M NaOH, sodium hydroxide]",Resistance of SF-nanobacteria to chemical disinfectants (survival),SF-nanobacteria; [4],+++
same,Resistance of SF-nanobacteria to chemical disinfectants (survival),SF-nanobacteria; [5],+++
CN(C)[C@@H]1C(O)=C(C(N)=O)C(=O)[C@@]2(O)C(O)=C3C(=O)c4c(O)cccc4[C@@](C)(O)[C@H]3C[C@@H]12 [Tetracycline],IC50,"nanobacteria; light or radiation study, 288 h, read-out: MIC 50",0.3 µg/mL
same,IC90,"nanobacteria; light or radiation study, 288 h, read-out: MIC 90",1.3 µg/mL
hydrochloric acid [1M HCl],partial or total detachment on exposure,SF-nanobacteria; [5],*
same,Resistance of SF-nanobacteria to chemical disinfectants (survival),SF-nanobacteria; [5],++
same,effect of chemical disinfection on SF-nanobacteria (in words),SF-nanobacteria; listed as Hydrochloric acid,dissolved the apatite layer
same,effect of chemical disinfection on SF-nanobacteria (in words),SF-nanobacteria; listed as hydrochloric acid,could not kill nanobacteria
Triton X-100 [1 % Triton X-100],Resistance of SF-nanobacteria to chemical disinfectants (survival),SF-nanobacteria; [4],+++
same,Resistance of SF-nanobacteria to chemical disinfectants (survival),SF-nanobacteria; [5],+++
CC(=O)OCC1=C(C(=O)O)N2C(=O)[C@@H](NC(=O)Cc3cccs3)[C@H]2SC1 [Cephalothin],IC50,nanobacteria; [3],> 500 µg/mL
"C=O [4% formaldehyde, formaldehyde]",Resistance of SF-nanobacteria to chemical disinfectants (survival),SF-nanobacteria; [4],+++
same,Resistance of SF-nanobacteria to chemical disinfectants (survival),SF-nanobacteria; [5],+++
hydrogen peroxide [3% H2O2],Resistance of SF-nanobacteria to chemical disinfectants (survival),SF-nanobacteria; [4],+++
same,Resistance of SF-nanobacteria to chemical disinfectants (survival),SF-nanobacteria; [5],+++
